Data reported in patent publication US12509449B2, “Anthelmintic compounds comprising a quinoline structure” (Intervet Inc., priority 2019, dated 2025).

Columns and labels:
[1] = molecular target: T1, human Maxi K channel (BK channel), KCNMA1 (KCa1.1) and beta1 (KCNMB1) subunits (Homo sapiens, UniProt Q12791); assay: Agonistic activity at the human Maxi K channel (BK channel), membrane potential (FLIPR) in transfected CHO K1 cells; format: cell-based; settings: membrane potential dye, 70 mM KCl
T1 construct: expressed in transfected cells; host or cells: CHO K1
T1 sequence (Q12791 1-1178 isoform Q12791-5): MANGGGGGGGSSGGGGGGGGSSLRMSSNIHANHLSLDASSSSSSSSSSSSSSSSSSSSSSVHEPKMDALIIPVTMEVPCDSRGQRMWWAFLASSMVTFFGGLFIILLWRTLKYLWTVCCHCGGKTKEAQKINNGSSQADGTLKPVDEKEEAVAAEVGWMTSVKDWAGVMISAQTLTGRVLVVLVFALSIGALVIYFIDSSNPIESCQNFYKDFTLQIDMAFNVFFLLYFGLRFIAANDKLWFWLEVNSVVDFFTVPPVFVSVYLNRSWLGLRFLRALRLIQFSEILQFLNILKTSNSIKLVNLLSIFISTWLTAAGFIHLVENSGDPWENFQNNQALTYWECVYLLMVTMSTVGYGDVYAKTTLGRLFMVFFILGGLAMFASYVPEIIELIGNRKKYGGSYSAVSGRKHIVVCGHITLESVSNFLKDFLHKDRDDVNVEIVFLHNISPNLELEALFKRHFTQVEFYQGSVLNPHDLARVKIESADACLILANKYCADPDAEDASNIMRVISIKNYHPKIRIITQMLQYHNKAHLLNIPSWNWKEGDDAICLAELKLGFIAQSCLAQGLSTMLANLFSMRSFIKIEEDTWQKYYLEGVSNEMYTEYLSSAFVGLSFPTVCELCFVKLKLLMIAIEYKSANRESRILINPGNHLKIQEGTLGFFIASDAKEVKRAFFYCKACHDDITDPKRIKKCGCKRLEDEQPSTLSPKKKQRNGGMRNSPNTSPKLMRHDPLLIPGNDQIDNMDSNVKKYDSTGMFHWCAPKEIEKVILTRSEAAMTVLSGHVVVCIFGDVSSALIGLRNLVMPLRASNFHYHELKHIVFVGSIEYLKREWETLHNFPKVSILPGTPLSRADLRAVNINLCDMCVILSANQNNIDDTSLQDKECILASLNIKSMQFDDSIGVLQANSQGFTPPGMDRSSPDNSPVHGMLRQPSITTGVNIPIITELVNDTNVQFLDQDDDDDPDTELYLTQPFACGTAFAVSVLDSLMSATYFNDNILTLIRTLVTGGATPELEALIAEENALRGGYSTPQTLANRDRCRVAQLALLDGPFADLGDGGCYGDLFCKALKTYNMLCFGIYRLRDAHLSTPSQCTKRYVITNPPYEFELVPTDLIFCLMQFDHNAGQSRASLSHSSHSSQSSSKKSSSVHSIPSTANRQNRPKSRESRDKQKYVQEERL
T1 sequence (Q16558 whole entry partner): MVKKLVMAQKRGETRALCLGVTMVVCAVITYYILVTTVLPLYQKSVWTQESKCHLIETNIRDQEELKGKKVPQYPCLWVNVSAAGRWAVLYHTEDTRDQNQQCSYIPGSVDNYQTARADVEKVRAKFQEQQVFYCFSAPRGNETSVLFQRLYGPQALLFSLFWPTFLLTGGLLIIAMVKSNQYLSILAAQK
From the text: A CHO K1 cell line was stably transfected with the KCNMA1 (KCa1.1, U11058) and beta1 (KCNMB1) subunits of the human Maxi K channel (Ponte et al, Molecular Pharmacology 2012, 81(4), 567-577).
The complete measurement takes 150 s.

[2] = system: Ascaridia galli L3; assay: In vitro assay Ascaridia galli larval stage 3, minimum effective concentration; format: cell-based; settings: 20 larvae per well, microscopic examination, read-out: MEC (minimum effective concentration) against Ascaridia galli L3
From the text: (§1) […] galli (intestinal roundworm of chicken), larval stage 3 (“L3”); and Oesophagostumum dentatum (nodular worm of swine), larval stages 3 and 4 (respectively “L3” and “L4”) where suspended in a nutrient medium and distributed to 96 well plates with 20 larvae per well. The wells were spiked DMSO solutions of the compounds with declining concentration.

[3] = molecular target: Caenorhabditis elegans slo-1a (Caenorhabditis elegans, UniProt Q95V25); assay: Agonistic activity at C. elegans Slo-1a, membrane potential (FLIPR) in transfected CHO K1 cells; settings: EC50 agonistic activity at C. elegans Slo-1a, membrane potential dye, 70 mM KCl
Chain of Caenorhabditis elegans slo-1a (Q95V25 whole entry): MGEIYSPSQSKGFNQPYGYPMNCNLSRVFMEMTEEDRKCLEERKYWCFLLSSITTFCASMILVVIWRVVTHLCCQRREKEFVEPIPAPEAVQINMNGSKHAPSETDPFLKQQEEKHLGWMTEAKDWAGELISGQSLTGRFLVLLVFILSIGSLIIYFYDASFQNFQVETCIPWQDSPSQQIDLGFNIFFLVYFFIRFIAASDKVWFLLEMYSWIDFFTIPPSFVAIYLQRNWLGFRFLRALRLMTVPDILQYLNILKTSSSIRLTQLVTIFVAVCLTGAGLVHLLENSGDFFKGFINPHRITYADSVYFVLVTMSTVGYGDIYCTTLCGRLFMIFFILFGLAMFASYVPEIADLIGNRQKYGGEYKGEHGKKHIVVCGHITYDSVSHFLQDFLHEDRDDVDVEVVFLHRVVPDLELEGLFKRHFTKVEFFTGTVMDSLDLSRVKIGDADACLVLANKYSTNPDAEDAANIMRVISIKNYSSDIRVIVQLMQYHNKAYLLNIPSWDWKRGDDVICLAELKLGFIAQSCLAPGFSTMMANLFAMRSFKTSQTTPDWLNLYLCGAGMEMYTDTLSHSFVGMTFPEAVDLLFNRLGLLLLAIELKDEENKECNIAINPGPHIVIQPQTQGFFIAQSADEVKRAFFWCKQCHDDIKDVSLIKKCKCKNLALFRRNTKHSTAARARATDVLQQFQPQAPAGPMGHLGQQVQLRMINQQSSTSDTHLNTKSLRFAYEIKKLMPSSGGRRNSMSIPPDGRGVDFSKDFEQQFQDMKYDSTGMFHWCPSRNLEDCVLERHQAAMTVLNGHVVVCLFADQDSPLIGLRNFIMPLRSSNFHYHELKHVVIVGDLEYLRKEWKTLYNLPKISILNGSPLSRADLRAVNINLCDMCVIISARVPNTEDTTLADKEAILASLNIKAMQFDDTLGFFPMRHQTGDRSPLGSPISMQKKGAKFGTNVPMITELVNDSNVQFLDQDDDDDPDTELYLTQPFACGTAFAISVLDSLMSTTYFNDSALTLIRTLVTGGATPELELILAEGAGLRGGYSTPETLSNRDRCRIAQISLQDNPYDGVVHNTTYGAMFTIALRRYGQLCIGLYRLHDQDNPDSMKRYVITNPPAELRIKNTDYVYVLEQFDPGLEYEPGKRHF

[4] = system: Oesophagostumum dentatum L3; assay: In vitro assay Oesophagostumum dentatum larval stage 3, minimum effective concentration; format: cell-based; settings: 20 larvae per well, microscopic examination; read-out: MEC (minimum effective concentration) against Oesophagostumum dentatum L3
From the text: as §1

[5] = system: Oesophagostumum dentatum L4; assay: In vitro assay Oesophagostumum dentatum larval stage 4, minimum effective concentration; format: cell-based; settings: 20 larvae per well, microscopic examination; read-out: MEC (minimum effective concentration) against Oesophagostumum dentatum L4
From the text: as §1

Row | SMILES | EC50 [1] [µM] | EC50 [3] [µM] | minimal effective concentration [2] [µM] | minimal effective concentration [4] [µM] | minimal effective concentration [5] [µM]
1 | CCc1c(NC(=O)[C@H]2CCCc3ccccc32)cnc2c(-c3cc(Cl)cc(Cl)c3)cccc12 [Compound 197] | > 30 | < 1 | ≤ 50 | – | –
2 | CN(C)c1c(NC(=O)C2CCCc3ccccc32)cnc2c(-c3cc(Cl)cc(Cl)c3)c(F)ccc12 (centres unmarked) [Compound 115] | > 30 | < 1 | ≤ 50 | – | –
3 | O=C(Nc1cnc2c(-c3cccc(Cl)c3Cl)cccc2c1NCCO)C1CCOc2ccccc21 (centres unmarked) [Compound 90] | > 30 | < 10 | ≤ 50 | ≤ 50 | –
4 | CCOc1c(NC(=O)C2CCCc3ccccc32)cnc2c(-c3cc(Cl)cc(Cl)c3)cccc12 (centres unmarked) [Compound 75] | > 30 | < 1 | ≤ 50 | ≤ 50 | –
5 | CCOc1c(NC(=O)C2CCc3ccccc32)cnc2c(-c3cccc(Cl)c3Cl)cccc12 (centres unmarked) [Compound 57, N-(8-(2,3-dichlorophenyl)-4-ethoxyquinolin-3-yl)-2,3-dihydro-1H-indene-1-carboxamide] | > 30 | < 1 | – | ≤ 50 | –
6 | CCOc1c(NC(=O)[C@H]2CCCc3ccccc32)cnc2c(-c3cc(Cl)cc(Cl)c3)cccc12 [Compound 154] | > 30 | < 1 | ≤ 50 | – | –
7 | COc1c(NC(=O)C2CCc3ccccc32)cnc2c(-c3cccc(Cl)c3Cl)cccc12 (centres unmarked) [Compound 16] | > 30 | < 1 | ≤ 50 | – | –
8 | COc1c(NC(=O)C2CCCc3ccccc32)cnc2c(-c3cc(Cl)cc(Cl)c3)cccc12 (centres unmarked) [Compound 69] | > 30 | < 1 | ≤ 50 | – | –
9 | COc1c(NC(=O)C2CCOc3ccccc32)cnc2c(-c3cccc(Cl)c3Cl)cccc12 (centres unmarked) [Compound 15] | > 30 | < 1 | ≤ 50 | – | –
10 | CN(C)c1c(NC(=O)C2CCOc3ccccc32)cnc2c(-c3cc(F)cc(F)c3)cccc12 (centres unmarked) [Compound 38] | > 30 | < 10 | ≤ 50 | – | –
11 | COc1c(NC(=O)C2CCCc3ccccc32)cnc2c(-c3cc(Cl)cc(Cl)c3)c(F)ccc12 (centres unmarked) [Compound 113] | > 30 | < 1 | ≤ 50 | – | –
12 | CN(C)c1c(NC(=O)C2CCOc3ccccc32)cnc2c(-c3cc(F)c(F)c(F)c3)cccc12 (centres unmarked) [Compound 39] | > 30 | < 10 | ≤ 50 | – | –
13 | CN(C)c1c(NC(=O)[C@H]2CCc3ccccc32)cnc2c(-c3cc(Cl)cc(Cl)c3)c(Cl)ccc12 [Compound 180] | > 30 | < 1 | ≤ 50 | – | –
14 | CC(C(=O)Nc1cnc2c(-c3cccc(Cl)c3Cl)cccc2c1N1CCOCC1)c1ccccc1 (centres unmarked) [Compound 21] | > 30 | < 10 | ≤ 50 | – | –
15 | Cc1ccc2c(N(C)C)c(NC(=O)[C@H]3CCc4ccccc43)cnc2c1-c1cc(Cl)cc(Cl)c1 [Compound 182] | > 30 | < 1 | ≤ 50 | – | –
16 | CCc1c(NC(=O)C2CCOc3ccccc32)cnc2c(-c3cc(Cl)cc(Cl)c3)cccc12 (centres unmarked) [Compound 195] | > 30 | < 1 | ≤ 50 | – | –
17 | O=C(Nc1cnc2c(-c3cc(Cl)cc(Cl)c3)c(F)ccc2c1N1CCOCC1)C1CCc2ccccc21 (centres unmarked) [Compound 136] | > 30 | < 10 | ≤ 50 | – | –
18 | CC(C)Oc1c(NC(=O)C2CCc3ccccc32)cnc2c(-c3cccc(Cl)c3Cl)c(F)ccc12 (centres unmarked) [Compound 142] | > 30 | – | ≤ 50 | ≤ 50 | –
19 | Nc1c(NC(=O)C2CCOc3ccccc32)cnc2c(-c3cccc(Cl)c3Cl)cccc12 (centres unmarked) [Compound 84] | > 30 | < 10 | ≤ 50 | – | –
20 | Cc1c(NC(=O)C2CCCc3ccccc32)cnc2c(-c3cc(Cl)cc(Cl)c3)cccc12 (centres unmarked) [Compound 192] | > 30 | < 10 | – | – | ≤ 50
21 | COc1c(NC(=O)C2CCOc3ccccc32)cnc2c(-c3cccc(Cl)c3Cl)c(C)ccc12 (centres unmarked) [Compound 164] | > 30 | < 10 | ≤ 50 | – | –
22 | CCOc1c(NC(=O)C2CCCc3ccccc32)cnc2c(-c3cc(Cl)cc(Cl)c3)c(F)ccc12 (centres unmarked) [Compound 114] | > 30 | – | – | ≤ 50 | –
23 | Cc1ccc(CC(=O)Nc2cnc3c(-c4cccc(Cl)c4Cl)cccc3c2N(C)C)cc1 [Compound 26] | > 30 | < 10 | – | ≤ 50 | –
24 | C=C(C)c1c(NC(=O)C2CCc3ccccc32)cnc2c(-c3cccc(Cl)c3Cl)cccc12 (centres unmarked) [Compound 201] | > 30 | < 1 | ≤ 50 | ≤ 50 | –
25 | C=C(C)c1c(NC(=O)C2CCCc3ccccc32)cnc2c(-c3cccc(Cl)c3Cl)cccc12 (centres unmarked) [Compound 202] | > 30 | < 1 | – | ≤ 50 | –
26 | CN(C)c1c(NC(=O)C2CCOc3ccccc32)cnc2c(-c3cc(Cl)cc(Cl)c3)cccc12 (centres unmarked) [Compound 67] | > 30 | < 1 | ≤ 50 | – | –
27 | O=C(Nc1cnc2c(-c3cccc(Cl)c3Cl)cccc2c1N1CCCC1)C1CCc2ccccc21 (centres unmarked) [Compound 18] | > 30 | – | ≤ 50 | – | ≤ 50
28 | CN(C)c1c(NC(=O)Cc2ccc(Cl)cc2)cnc2c(-c3cccc(Cl)c3Cl)cccc12 [Compound 25] | > 30 | < 10 | – | ≤ 50 | –
29 | CCc1c(NC(=O)C2CCCc3ccccc32)cnc2c(-c3cc(Cl)cc(Cl)c3)cccc12 (centres unmarked) [Compound 191] | > 30 | < 1 | – | ≤ 50 | –

The next lines start with results.

Row | EC50 [1] [µM] | EC50 [3] [µM] | SMILES | minimal effective concentration [2] [µM] | minimal effective concentration [4] [µM] | minimal effective concentration [5] [µM]
30 | > 30 | < 1 | CN(C)c1c(NC(=O)C2CCOc3ccccc32)cnc2c(-c3cccc(Cl)c3Cl)cccc12 (centres unmarked) [Compound 12] | ≤ 50 | – | –
31 | > 30 | – | CC(C)Oc1c(NC(=O)C2CCOc3ccccc32)cnc2c(-c3cccc(Cl)c3Cl)cccc12 (centres unmarked) [Compound 32] | ≤ 50 | ≤ 50 | –
32 | > 30 | – | CC(C)Oc1c(NC(=O)C2CCCc3ccccc32)cnc2c(-c3cccc(Cl)c3Cl)c(F)ccc12 (centres unmarked) [Compound 122] | ≤ 50 | ≤ 50 | –
33 | > 30 | – | CC(C)Oc1c(NC(=O)c2cccc3ccccc23)cnc2c(-c3cc(Cl)cc(Cl)c3)cccc12 [Compound 81] | – | ≤ 50 | –
34 | > 30 | < 1 | COc1c(NC(=O)C2CCCc3ccccc32)cnc2c(-c3cccc(Cl)c3Cl)cccc12 (centres unmarked) [Compound 14] | ≤ 50 | – | –
35 | > 30 | < 10 | CN(C)c1cccc(CC(=O)Nc2cnc3c(-c4cccc(Cl)c4Cl)cccc3c2N(C)C)c1 [Compound 49] | – | – | ≤ 50
36 | > 30 | < 1 | COc1c(NC(=O)C2CCOc3ccccc32)cnc2c(-c3cc(Cl)cc(Cl)c3)c(F)ccc12 (centres unmarked) [Compound 123] | ≤ 50 | – | –
37 | > 30 | – | O=C(Nc1cnc2c(-c3cccc(Cl)c3Cl)cccc2c1O)C1CCOc2ccccc21 (centres unmarked) [Compound 112] | – | ≤ 50 | –
38 | > 30 | < 10 | CCc1c(NC(=O)c2cccc3ccccc23)cnc2c(-c3cc(Cl)cc(Cl)c3)cccc12 [Compound 199] | ≤ 50 | – | –
39 | > 30 | < 10 | CN(C)c1c(NC(=O)Cc2ccccc2)cnc2c(-c3cccc(Cl)c3Cl)cccc12 [Compound 1] | ≤ 50 | ≤ 50 | –
40 | > 30 | < 10 | CN(CCO)c1c(NC(=O)C2CCOc3ccccc32)cnc2c(-c3cccc(Cl)c3Cl)cccc12 (centres unmarked) [Compound 92] | – | – | ≤ 50
41 | > 30 | < 10 | Cc1c(NC(=O)C2CCOc3ccccc32)cnc2c(-c3cc(Cl)cc(Cl)c3)cccc12 (centres unmarked) [Compound 194] | ≤ 50 | – | –
42 | > 30 | < 10 | Cc1cccc(CC(=O)Nc2cnc3c(-c4cccc(Cl)c4Cl)cccc3c2N(C)C)c1 [Compound 35] | – | ≤ 50 | –
43 | > 30 | < 1 | COc1c(NC(=O)[C@H]2CCCc3ccccc32)cnc2c(-c3cc(Cl)cc(Cl)c3)cccc12 [Compound 155] | ≤ 50 | – | –
44 | 10 to 30 | < 1 | O=C(Nc1cnc2c(-c3cccc(Cl)c3Cl)cccc2c1N1CCC(O)C1)C1CCc2ccccc21 (centres unmarked) [Compound 45] | ≤ 50 | – | ≤ 50
45 | 10 to 30 | < 1 | CN(CCO)c1c(NC(=O)C2CCCc3ccccc32)cnc2c(-c3cccc(Cl)c3Cl)cccc12 (centres unmarked) [Compound 102] | ≤ 50 | – | –
